Converted amounts (≈) assume the structure as drawn. “And” between values parts separate entries of the source, which are not always exact repeats. Equal values may be shown once. “Also recorded” adds a separate entry of the source. One block for each compound: values may come before it.
Key:
Assay type in all cases: physicochemical
[1] = Solid-state stability at 60° C. (capped) and 40° C./75% RH (open)
Description: (capped) and 40° C./75% RH (open) for 7 days. Duplicate samples were prepared at each condition. The stability sample was dissolved in diluent to prepare solution at ˜1 mg/mL for HPLC purity analysis. Solid samples were analyzed by XRPD to check the crystal form. […] (capped) and 40° C./75% RH (open) for at least 7 days.

[2] = Preliminary solubility test: estimated solubility at RT by visual observation; settings: organic solvent or mixture, thermodynamic from solid, read-out: Solubility
Description: The solubility of Compound 1 (starting material) was estimated at RT in 18 single solvents and 6 solvent mixtures by visual observation. Approximately 5 mg solids were weighed into 8 mL glass vial, and then solvent was added stepwise until solids were dissolved completely or a total of solvent volume reached 5 mL. […] The solubility was estimated and for reference only.

[3] = Mechanical stability of Form I (manual grinding); settings: ground by pestle and mortar for about 1 minute and 5 minutes
Description: Appropriate amount of Form I was manually ground by pestle and mortar for about 1 minute and 5 minutes, respectively. The ground samples were analyzed by XRPD.

[4] = pH solubility profile of Form I in pH buffers; settings: for XRPD 4 h / XRPD 24 h: wet cake
Description: Different pH buffers (pH 1.0, 3.0, 5.0, 6.8 and 9.0) were prepared by method in Table 18. Appropriate amount of Form I was added into 1.4 mL of different buffers (pH=1.0, 3.0, 5.0, 6.8 and 9.0) to make suspensions. The suspensions were kept shaking with a speed of 1000 rpm at 25° C. for 4 and 24 hours. At each point, the suspensions were centrifuged, and the supernatant was inspected by UPLC/pH, and the wet cakes were analyzed by XRPD. Duplicate samples were prepared.

[5] = Solubility in bio-relevant media (SGF, FaSSIF, FeSSIF) and water; settings: for XRPD 0.5 h / XRPD 2 h / XRPD 24 h: filter cake; for Solubility 0.5 h / Solubility 2 h / Solubility 24 h: average n=2
Description: At 0.5, 2 and 24 hours, about 0.6 mL of each suspension was filtered, the filtrate was analyzed by HPLC and pH meter, and the filter cake was analyzed by XRPD. The samples were prepared in duplicate (n=2) per condition. Average value (n=2) was presented.
HPLC analysis was performed with an Agilent HPLC 1260 series instrument.

[6] = DVS test (dynamic vapor sorption, hygroscopicity); settings: for hygroscopicity (in words): DVS
Description: All the three target forms remained no change after DVS test.
Dynamic Vapor Sorption (DVS) was used to study hygroscopicity on Model Q5000 SA (TA Instruments, New Castle, DE). A sample (1-10 mg) was placed in an aluminum pan and loaded on the sample side of the twin pan balance. The water sorption and desorption were studied as a function of relative humidity (RH) at 25° C. in 10% RH increments from 0% RH to 90% RH and then back to 0%. […] Data analysis was performed using Universal Analysis 2000 Version 4.7A (TA Instruments, New Castle, DE).

[7] = Stability relationship study (slurry turnover of Form II)
Description: Form II was prepared via heating starting material to 220° C. in DSC pans. Then, about 15 mg of Form II was stirred in 0.5 mL of selected solvent at desired temperatures for 2 and 5 days. Solid samples were collected by filtration and characterized by XRPD.

[8] = aqueous buffer, thermodynamic from solid, pH 3.0 buffer (25 mM citrate), initial pH 3.01, solid loading 5 mg/mL, 25° C.
[9] = aqueous buffer, thermodynamic from solid, pH 5.0 buffer (25 mM citrate), initial pH 4.95, solid loading 5 mg/mL, 25° C.
[10] = aqueous buffer, thermodynamic from solid, pH 6.8 buffer (25 mM phosphate), initial pH 6.78, solid loading 5 mg/mL, 25° C.
[11] = aqueous buffer, thermodynamic from solid, pH 9.0 buffer (25 mM DEA), initial pH 9.01, solid loading 5 mg/mL, 25° C.
[12] = pH 1.0 buffer, initial pH 1.01, solid loading 60 mg/mL
[13] = pH 3.0 buffer, initial pH 3.01, solid loading 5 mg/mL
[14] = pH 5.0 buffer, initial pH 4.95, solid loading 5 mg/mL
[15] = pH 6.8 buffer, initial pH 6.78, solid loading 5 mg/mL
[16] = pH 9.0 buffer, initial pH 9.01, solid loading 5 mg/mL
[17] = simulated gastric fluid, thermodynamic from solid, pH 1.0 buffer (0.1N HCl), initial pH 1.01, solid loading 60 mg/mL, 25° C.
[18] = FaSSIF, initial pH 6.45, 37° C.
[19] = FaSSIF, initial pH 6.45, filtrate
[20] = FeSSIF, initial pH 4.99, 37° C.
[21] = FeSSIF, initial pH 4.99, filtrate
[22] = Water, initial pH 5.41, filtrate

XRPD - 7 d ([1]; 40° C./75% RH (open), 7 days): Unchanged
physical and chemical stability ([1]; 60° C. (capped) and 40° C./75% RH (open), 7 days): physically and chemically stable
XRPD - 7 d ([1]; 60° C. (capped), 7 days): Unchanged
Initial Purity ([1]; before storage, HPLC): 99.16 area %
solubility ([2]; DCM/MeOH (4/1, v/v), DCM/MeOH (4/1)): > 50000 µg/mL
solubility ([2]; most solvent systems): < 5000 µg/mL
solubility at 4 h [4, 8]: 2460 µg/mL (≈ 5600 µM)
solubility at 24 h [4, 8]: 784 µg/mL (≈ 1780 µM)
solubility at 4 h [4, 9]: 83 µg/mL (≈ 189 µM)
solubility at 24 h [4, 9]: 84 µg/mL (≈ 191 µM)
solubility at 4 h [4, 10]: 8 µg/mL (≈ 18.2 µM)
solubility at 24 h [4, 10]: 8 µg/mL (≈ 18.2 µM)
solubility at 4 h [4, 11]: 14 µg/mL (≈ 31.8 µM)
solubility at 24 h [4, 11]: 14 µg/mL (≈ 31.8 µM)
solubility ([4]; pH 1, simulated gastric fluid, thermodynamic from solid, 0.1 N HCl, 25° C., read-out: solubility (highest)): > 40000 µg/mL
pH 4 h [4, 12]: 2.48
pH 24 h [4, 12]: 2.38
XRPD 4 h ([4]; pH 1.0 buffer): Form I
XRPD 24 h ([4]; pH 1.0 buffer): Form I
form change of the solid ([4]; pH 3 buffer at 24 h): converted into Citrate Form I
pH 4 h [4, 13]: 3.30
pH 24 h [4, 13]: 3.45
XRPD 4 h ([4]; pH 3.0 buffer): Form I
XRPD 24 h ([4]; pH 3.0 buffer): Citrate Form I
pH 4 h [4, 14]: 4.88
pH 24 h [4, 14]: 4.90
XRPD 4 h ([4]; pH 5.0 buffer): Form I
XRPD 24 h ([4]; pH 5.0 buffer): Form I
solubility (in words) ([4]; pH 6.8 and 9 buffers, 25° C.): low
pH 4 h [4, 15]: 6.75
pH 24 h [4, 15]: 6.79
XRPD 4 h ([4]; pH 6.8 buffer): Form I
XRPD 24 h ([4]; pH 6.8 buffer): Form I
pH 4 h [4, 16]: 9.16
pH 24 h [4, 16]: 9.15
XRPD 4 h ([4]; pH 9.0 buffer): Form I
XRPD 24 h ([4]; pH 9.0 buffer): Form I
solubility at 4 h [4, 17]: > 44400 µg/mL
solubility at 24 h [4, 17]: > 44500 µg/mL
form change of the solid ([4]; the other conditions (other buffers and time points)): remained unchanged
XRPD 0.5 h ([5]; FaSSIF): Unchanged
XRPD 2 h ([5]; FaSSIF): Unchanged
XRPD 24 h ([5]; FaSSIF): Unchanged
Solubility 0.5 h [5, 18]: 13 µg/mL (≈ 29.6 µM)
Solubility 2 h [5, 18]: 15 µg/mL (≈ 34.1 µM)
Solubility 24 h [5, 18]: 15 µg/mL (≈ 34.1 µM)
pH 0.5 h [5, 19]: 6.47
pH 2 h [5, 19]: 6.39
pH 24 h [5, 19]: 6.44
XRPD 0.5 h ([5]; FeSSIF): Unchanged
XRPD 2 h ([5]; FeSSIF): Unchanged
XRPD 24 h ([5]; FeSSIF): Unchanged
Solubility 0.5 h [5, 20]: 82 µg/mL (≈ 186 µM)
Solubility 2 h [5, 20]: 83 µg/mL (≈ 189 µM)
Solubility 24 h [5, 20]: 80 µg/mL (≈ 182 µM)
pH 0.5 h [5, 21]: 5.01
pH 2 h [5, 21]: 4.98
pH 24 h [5, 21]: 4.82
XRPD 0.5 h, 2 h, 24 h ([5]; SGF): Clear
solubility ([5]; SGF, 37 °C, pH 1.23, simulated gastric fluid, thermodynamic from solid, SGF, 37° C., read-out: solubility in SGF): > 5000 µg/mL
Solubility 0.5 h, 2 h, 24 h ([5]; SGF, initial pH 1.23, 37° C.): >5000 µg/mL
pH 0.5 h ([5]; SGF, initial pH 1.23, filtrate): 1.33
pH 2 h ([5]; SGF, initial pH 1.23, filtrate): 1.20
pH 24 h ([5]; SGF, initial pH 1.23, filtrate): 1.28
XRPD 0.5 h ([5]; Water): Unchanged
XRPD 2 h ([5]; Water): Unchanged
XRPD 24 h ([5]; Water): Unchanged
Solubility 0.5 h ([5]; Water, initial pH 5.41, 37° C.): 11 µg/mL (≈ 25 µM)
Solubility 2 h ([5]; Water, initial pH 5.41, 37° C.): 11 µg/mL (≈ 25 µM)
Solubility 24 h ([5]; Water, initial pH 5.41, 37° C.): 10 µg/mL (≈ 22.7 µM)
pH 0.5 h [5, 22]: 5.93
pH 2 h [5, 22]: 6.54
pH 24 h [5, 22]: 7.54
crystal form after solubility test ([5]; XRPD of filter cake): remained unchanged
solubility in the other media (in words) ([5]; media other than SGF (FaSSIF, FeSSIF, water), 37° C.): low solubility
hygroscopicity (in words) [6]: slightly hygroscopic
hygroscopicity (in words) ([6]; listed as Form I): slightly hygroscopic
crystal form after DVS test ([6]; XRPD after DVS): remained unchanged
water uptake ([6]; at 80% RH): 0.5%
water uptake ([6]; at 80% RH, listed as Form I): 0.5% and < 1%
water uptake ([6]; at 90% RH): 0.6%
water uptake ([6]; at 90% RH, listed as Form I): 0.6%
Structure (SMILES): C[C@@H]1[C@@H](Oc2ccc(C(=O)NC3CC3)nc2)CN1Cc1cnc2cc(Cl)c(=O)[nH]c2c1 [Freebase Form I, 5-(((2R,3S)-1-((7-chloro-6-oxo-5,6-dihydro-1,5-naphthyridin-3-yl)methyl)-2-methylazetidin-3-yl)oxy)-N-cyclopropylpicolinamide]
crystal form after grinding (XRPD) [3]: remained unchanged with little crystallinity decrease
relative stability of the crystal form ([7]; anhydrates Form I vs Form II): more stable anhydrate at RT to 80 °C; also recorded: Stable below 80 °C

Slurry turnover output (XRPD) Day 2 ([7]; ACN, 80° C.): Form I + II
Slurry turnover output (XRPD) Day 5 ([7]; ACN, 80° C.): Form I
Slurry turnover output (XRPD) Day 2 ([7]; Acetone, 50° C.): Form I
Slurry turnover output (XRPD) Day 2 ([7]; Acetone, RT): Form I
form after slurry in selected solvents (XRPD) ([7]; stirred at desired temperatures (RT to 80° C.) for 2 and 5 days): converted to Form I at all conditions
Structure (SMILES): C[C@@H]1[C@@H](Oc2ccc(C(=O)NC3CC3)nc2)CN1Cc1cnc2cc(Cl)c(=O)[nH]c2c1 [Freebase Form II, 5-(((2R,3S)-1-((7-chloro-6-oxo-5,6-dihydro-1,5-naphthyridin-3-yl)methyl)-2-methylazetidin-3-yl)oxy)-N-cyclopropylpicolinamide]

— patent US20240317746A1, “CRYSTALLINE FORMS OF AN AZETIDINE PARP1 INHIBITOR” (XinThera, Inc., priority 2023, published 2024)
